The source of these data is paper PMC12799362, “The effect of dimeric bisbenzimidazoles on the activity of DNA repair enzymes TDP1, TDP2, PARP1 and PARP2” (Vavilov Journal of Genetics and Breeding, 2025).

Assay [1] deals with T1, tyrosyl-DNA phosphodiesterase 1 (TDP1) (Homo sapiens, UniProt Q9NUW8).
T1 construct: made in house; host or cells: E. coli
The assay can be described thus: Real-time fluorescent detection of TDP1 activity (BHQ1 cleavage from 3′-end of single-stranded FAM oligonucleotide). It is filed as biochemical. As to conditions: recombinant TDP1 1.5 nM, 50 nM single-stranded oligonucleotide, 26 °C; mean ± SD, at least three replicates. As for the experimental part: (§1) Recombinant human proteins tyrosyl-DNA phosphodiesterase 1 (TDP1) and tyrosyl-DNA phosphodiesterase 2 (TDP2) were expressed in the E. coli system, poly(ADP-ribose) polymerase 1 (PARP1) and poly(ADP-ribose) polymerase 2 (PARP2) were expressed in insect cells using a baculovirus expression system and purified as described in (Sukhanova et al., 2004; Sherstyuk et al., 2019; Dyrkheeva et al., 2020, 2021).
Determination of TDP1 activity. The reaction mixture (200 μl) for real-time fluorescent detection of TDP1 enzyme activity (Zakharenko et al., 2015) contained TDP1 reaction buffer (50 mM Tris-HCl, pH 8.0, 50 mM NaCl, and 7 mM β-mercaptoethanol), 50 nM oligonucleotide 5′-FAM-AAC GTC AGG GTC TTC C-BHQ1-3′, the test compound at various concentrations, and TDP1 at a final concentration of 1.5 nM. The reaction mixtures were incubated at a constant temperature of 26 °C in a POLARstar OPTIMA microplate fluorometer (BMG LABTECH, GmbH, Ortenberg, Germany). Fluorescence intensity (Ex485/Em520 nm) was measured every minute for 10 min. Mean values of half-maximal inhibitory concentration (IC50 – the concentration of the compound that inhibited 50 % of enzyme activity compared to the untreated control well containing only enzyme and substrate) were determined using a dose-response curve of the fluorescence signal level versus inhibitor concentration and calculated using MARS Data Analysis 2.0 (BMG LABTECH). Kinetic curves were obtained in at least three independent experiments and statistically processed in OriginPro 8.6.0 (OriginLab, Northampton, Massachusetts, USA).
The third group of compounds includes derivatives of the monomeric compound MB2Py(Ac), which is an isosteric analog of MB3, due to the fact that the pyrrolecarboxamide fragment contained in its structure can act as a hydrogen atom donor at the carboxamide nitrogen for hydrogen bond formation, in a position analogous to benzimidazole. Dimeric derivatives are represented by the DB2Py(n) series containing n-alkyldicarboxylic acids as a linker. This series is represented by a set of compounds containing 1, 3, 4, 5, 7, 9, and 11 methylene units, which allowed for a more accurate assessment of the dependence of the inhibitory activity of compounds on spacer length. The DB2Py(n) series differs from the DB3(n) series by the presence, in addition to the bisbenzimidazole structure, of a pyrrolecarboxamide structure, which is a fragment of the AT-specific antibiotic netropsin.Using the real-time fluorescence analysis method, halfmaximal inhibitory concentration (IC50) values of the studied compounds (see the Table) were obtained in the reaction of BHQ1 cleavage from the 3′-end of the oligonucleotide by TDP1, which led to an increase in FAM fluorescence at the 5′-end of the chain (Zakharenko et al., 2015). It should also be noted that a single-stranded oligonucleotide was used as substrate to exclude the binding of dimeric bisbenzimidazoles as minor-groove ligands to the DNA substrate and direct their action toward the enzymatic target.

Assay [2] has as its target T2, tyrosyl-DNA phosphodiesterase 2 (TDP2) (Homo sapiens, UniProt O95551).
T2 construct: made in house; host or cells: E. coli
T2 sequence (O95551 1-362): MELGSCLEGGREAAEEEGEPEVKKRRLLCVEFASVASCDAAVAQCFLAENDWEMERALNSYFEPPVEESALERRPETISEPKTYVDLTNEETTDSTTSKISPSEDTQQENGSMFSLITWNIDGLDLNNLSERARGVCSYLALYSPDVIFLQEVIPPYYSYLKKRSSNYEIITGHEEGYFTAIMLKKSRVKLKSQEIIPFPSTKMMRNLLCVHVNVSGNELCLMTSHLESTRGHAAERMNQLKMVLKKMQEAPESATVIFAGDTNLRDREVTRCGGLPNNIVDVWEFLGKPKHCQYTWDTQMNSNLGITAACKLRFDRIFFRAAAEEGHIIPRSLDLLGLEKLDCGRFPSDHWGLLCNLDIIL
The assay can be described thus: TDP2 activity, removal of 5′-tyrosine from oligonucleotide substrate, denaturing PAGE. It is filed as biochemical. As to conditions: inhibitor 500 μM, TDP2 200 nM, substrate 100 nM, 10 min, 37 °C; mean ± SD; read-out: TDP2 % of residual activity (500 μM).
From the text: as §1
Determination of TDP2 activity. For determination of TDP2 enzyme activity, an oligonucleotide 5′-tyrosine-AAC GTC AGG GTC TTC C-FAM-3′ containing a 6-FAM label at the 3′-end and an L-tyrosine residue attached via the phenolic OH group to the 5′-terminal phosphate was used as substrate, synthesized at the Russian-French-Japanese Laboratory of Bionanotechnology of Novosibirsk State University as described in (Dyrkheeva et al., 2021). The substrate at a concentration of 100 nM was incubated with TDP2 at a concentration of 200 nM in the absence or presence of inhibitor (500 μM) for 10 min at 37 °C in buffer containing 50 mM Tris-HCl, pH 8.0, 50 mM NaCl, 7 mM β-mercaptoethanol (Dyrkheeva et al., 2021). The reaction was stopped by addition of PAGE loading buffer (TBE, 10 % formamide, 7 M urea, 20 mM EDTA, 0.1 % xylene cyanol, and 0.1 % bromophenol blue). The samples were then heated at 90 °C for 5 min. The enzymatic reaction products were separated by electrophoresis in 20 % denaturing PAGE with 7 M urea at an acrylamide to bisacrylamide ratio of 19:1. A high-resolution Typhoon FLA 9500 laser scanner (GE Healthcare, Chicago, Illinois, USA) was used for gel scanning and visualization, and the data were analyzed using QuantityOne 4.6.7 software (Bio- Rad Laboratories, Inc., Hercules, California, USA). At least three independent experiments were performed, and statistical processing was carried out using OriginPro 8.6.0 (OriginLab, Northampton, Massachusetts, USA).
To study the effect of the studied compounds on TDP2 activity, we tested the ability of this enzyme to remove the tyrosine residue from the 5′-end of the oligonucleotide substrate in the absence and presence of inhibitors, as described in (Dyrkheeva et al., 2021).

The target of assay [3] is T3, poly(ADP-ribose) polymerase 1 (PARP1) (Homo sapiens, UniProt P09874).
T3 construct: made in house; host or cells: insect cells (baculovirus expression system)
T3 sequence (P09874 whole entry): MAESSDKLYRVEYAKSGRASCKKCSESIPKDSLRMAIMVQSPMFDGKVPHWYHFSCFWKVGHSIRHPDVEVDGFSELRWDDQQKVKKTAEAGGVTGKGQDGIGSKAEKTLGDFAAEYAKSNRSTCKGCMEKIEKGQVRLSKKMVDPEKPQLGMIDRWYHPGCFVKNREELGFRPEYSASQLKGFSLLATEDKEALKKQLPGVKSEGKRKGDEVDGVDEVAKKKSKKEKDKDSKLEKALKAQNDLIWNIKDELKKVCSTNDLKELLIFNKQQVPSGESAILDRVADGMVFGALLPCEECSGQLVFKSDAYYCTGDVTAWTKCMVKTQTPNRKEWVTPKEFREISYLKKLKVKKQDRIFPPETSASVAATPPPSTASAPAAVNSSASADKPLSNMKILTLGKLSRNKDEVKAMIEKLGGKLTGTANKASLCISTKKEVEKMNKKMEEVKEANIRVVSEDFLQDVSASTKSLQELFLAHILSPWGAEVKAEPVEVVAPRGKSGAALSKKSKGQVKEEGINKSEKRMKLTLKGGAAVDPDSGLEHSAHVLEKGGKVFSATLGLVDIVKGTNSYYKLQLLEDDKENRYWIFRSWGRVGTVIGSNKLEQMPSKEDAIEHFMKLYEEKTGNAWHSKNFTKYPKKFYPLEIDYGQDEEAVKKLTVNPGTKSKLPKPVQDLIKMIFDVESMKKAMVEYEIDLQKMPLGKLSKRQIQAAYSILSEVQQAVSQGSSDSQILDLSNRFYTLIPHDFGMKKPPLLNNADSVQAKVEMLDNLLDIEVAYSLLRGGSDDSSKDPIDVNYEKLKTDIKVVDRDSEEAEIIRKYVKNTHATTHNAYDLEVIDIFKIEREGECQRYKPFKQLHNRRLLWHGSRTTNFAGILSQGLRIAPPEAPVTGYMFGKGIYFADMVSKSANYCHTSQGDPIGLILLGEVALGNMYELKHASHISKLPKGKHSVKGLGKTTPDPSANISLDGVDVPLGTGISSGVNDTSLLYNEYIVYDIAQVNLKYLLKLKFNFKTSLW
Kind of assay: PARP1 auto-poly(ADP-ribosyl)ation with [32P]-NAD+. Format: biochemical. As to conditions: compound 500 μM, PARP1 200 nM, 0.3 mM [32P]-NAD+, 2 min, 37 °C; mean ± SD; read-out: PARP1 % of residual activity (500 μM).
From the text: as §1
(§2) Determination of PARP1 and PARP2 activity. For determination of PARP1 and PARP2 enzyme activity in the presence and absence of test compounds, radiolabeled [32P]-NAD⁺ was synthesized from α-[32P]-ATP according to the protocol (Sherstyuk et al., 2019). The auto-poly(ADPribosyl) ation reaction was performed in buffer for PARP1: 50 mM Tris-HCl, pH 8.0, 10 mM MgCl2, 150 mM NaCl, and 7 mM β-mercaptoethanol, as well as 2 A260 units/ml activated DNA, 0.3 mM [32P]-NAD⁺ at 37 °C. The reaction was initiated by addition of PARP1 to 200 nM and carried out for 2 min
(§3) The buffer for PARP2 contained: 50 mM Tris-HCl, pH 8.0, 3 mM spermine, 150 mM NaCl, and 7 mM β-mercaptoethanol, 2 A260 units/ml activated DNA, 0.6 mM [32P]-NAD⁺ at 37 °C. The reaction was initiated by addition of PARP2 to 600 nM, and the reaction mixtures were incubated for 5 min. The reaction was stopped by placing 5 μl aliquots on Whatman 1 paper filters impregnated with 5 % trichloroacetic acid (TCA). The filters were washed with 5 % TCA four times and air-dried after removal of TCA with 90 % ethanol. The incorporation of the radioactive label into the reaction product was calculated using a Typhoon FLA 9500 scanner (GE Healthcare, Chicago, Illinois, USA). At least three independent experiments were performed.

Assay [4] deals with poly(ADP-ribose) polymerase 2 (PARP2). The assay can be described thus: PARP2 auto-poly(ADP-ribosyl)ation with [32P]-NAD+. It is filed as biochemical, human. To be noted: compound 500 μM, PARP2 600 nM, 0.6 mM [32P]-NAD+, 5 min, 37 °C; mean ± SD.
From the text: as §1, §2, §3

Structures are written as SMILES.

T1 sequence (Q9NUW8 whole entry): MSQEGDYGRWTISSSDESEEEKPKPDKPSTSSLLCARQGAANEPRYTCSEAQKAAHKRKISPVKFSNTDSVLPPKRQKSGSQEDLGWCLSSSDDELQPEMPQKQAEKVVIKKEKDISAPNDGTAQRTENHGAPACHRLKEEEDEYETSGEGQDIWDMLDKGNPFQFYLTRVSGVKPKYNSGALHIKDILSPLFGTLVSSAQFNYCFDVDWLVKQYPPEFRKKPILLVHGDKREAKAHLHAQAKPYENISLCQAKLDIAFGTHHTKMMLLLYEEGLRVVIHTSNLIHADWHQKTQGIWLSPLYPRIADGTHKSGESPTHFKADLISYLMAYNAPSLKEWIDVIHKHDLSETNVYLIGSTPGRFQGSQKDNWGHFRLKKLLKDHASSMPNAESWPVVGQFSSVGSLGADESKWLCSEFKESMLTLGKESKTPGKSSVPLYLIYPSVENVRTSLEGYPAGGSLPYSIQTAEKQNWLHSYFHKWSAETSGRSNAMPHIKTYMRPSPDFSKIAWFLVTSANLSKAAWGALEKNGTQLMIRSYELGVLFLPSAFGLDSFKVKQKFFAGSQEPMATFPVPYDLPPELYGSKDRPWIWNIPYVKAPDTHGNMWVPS

Take `CCCn1cc(NC(=O)CCCCCCCCCC(=O)Nc2cc(-c3nc4ccc(-c5nc6ccc(N7CCN(C)CC7)cc6[nH]5)cc4[nH]3)n(CCC)c2)cc1-c1nc2ccc(-c3nc4ccc(N5CCN(C)CC5)cc4[nH]3)cc2[nH]1` [DB2Py(9)]: in assay [1], the IC50 (usually the concentration that inhibits the measured activity by half) was 0.3 ± 0.08 µM. The remaining activity at 500 µM in assay [2] and in assay [3] was around 100% throughout. The “PARP2 % of residual activity (500 μM)” value in assay [4] was ~ 100%.

Regarding `CCCn1cc(NC(=O)CCCCCCCCCCCC(=O)Nc2cc(-c3nc4ccc(-c5nc6ccc(N7CCN(C)CC7)cc6[nH]5)cc4[nH]3)n(CCC)c2)cc1-c1nc2ccc(-c3nc4ccc(N5CCN(C)CC5)cc4[nH]3)cc2[nH]1` [DB2Py(11)], the half-maximal inhibitory concentration (IC50) in assay [1] was found to be 0.9 ± 0.1 µM. For the same compound, the remaining activity at 500 µM in assay [2] and in assay [3] was around 100% each time. For the same compound, the “PARP2 % of residual activity (500 μM)” value in assay [4] is given as ~ 100%.

For `CN1CCN(c2ccc3nc(-c4ccc5nc(-c6ccc7nc(CNC(=O)CC(=O)NCc8nc9ccc(-c%10nc%11ccc(-c%12nc%13ccc(N%14CCN(C)CC%14)cc%13[nH]%12)cc%11[nH]%10)cc9[nH]8)[nH]c7c6)[nH]c5c4)[nH]c3c2)CC1` [DB3(1)], the 50% inhibitory concentration (IC50) in assay [1] was above 50 µM. Further, the values for the remaining activity at 500 µM in assay [2] and in assay [3] were 70 ± 6% and 55 ± 13%, respectively. The “PARP2 % of residual activity (500 μM)” value in assay [4] was ~ 100%.

Turning to `CN1CCN(c2ccc3nc(-c4ccc5nc(-c6ccc7nc(CNC(=O)CCCCCC(=O)NCc8nc9ccc(-c%10nc%11ccc(-c%12nc%13ccc(N%14CCN(C)CC%14)cc%13[nH]%12)cc%11[nH]%10)cc9[nH]8)[nH]c7c6)[nH]c5c4)[nH]c3c2)CC1` [DB3(5)], the IC50 in assay [1] is above 50 µM. Besides, the remaining activity at 500 µM came to 65 ± 10% in assay [2] and 62 ± 16% in assay [3]. Moreover, in assay [4], the “PARP2 % of residual activity (500 μM)” value is on record as ~ 100%.

For `CN1CCN(c2ccc3nc(-c4ccc5nc(-c6ccc7nc(CNC(=O)CCCCCCCCCC(=O)NCc8nc9ccc(-c%10nc%11ccc(-c%12nc%13ccc(N%14CCN(C)CC%14)cc%13[nH]%12)cc%11[nH]%10)cc9[nH]8)[nH]c7c6)[nH]c5c4)[nH]c3c2)CC1` [DB3(9)], in assay [1], the IC50 was above 50 µM. For the same compound, the remaining activity at 500 µM in assay [2] and in assay [3] was around 100% in each case. Besides, in assay [4], the “PARP2 % of residual activity (500 μM)” value was ~ 100%.

For the compound `CN1CCN(c2ccc3nc(-c4ccc5nc(-c6ccc7nc(CNC(=O)CN8CCN(CC(=O)NCc9nc%10ccc(-c%11nc%12ccc(-c%13nc%14ccc(N%15CCN(C)CC%15)cc%14[nH]%13)cc%12[nH]%11)cc%10[nH]9)CC8)[nH]c7c6)[nH]c5c4)[nH]c3c2)CC1` [DB3P(1)], the IC50 in assay [1] is 0.1 ± 0.05 µM. Besides, the remaining activity at 500 µM in assay [2] was around 100%; in assay [3], 70 ± 12%. Further, the “PARP2 % of residual activity (500 μM)” value in assay [4] is reported as ~ 100%.

Consider `CN1CCN(c2ccc3nc(-c4ccc5nc(-c6ccc7nc(CNC(=O)CCN8CCN(CCC(=O)NCc9nc%10ccc(-c%11nc%12ccc(-c%13nc%14ccc(N%15CCN(C)CC%15)cc%14[nH]%13)cc%12[nH]%11)cc%10[nH]9)CC8)[nH]c7c6)[nH]c5c4)[nH]c3c2)CC1` [DB3P(2)], for which the IC50 in assay [1] was 0.11 ± 0.01 µM. The remaining activity at 500 µM is around 100% in assay [2] and 40 ± 5% in assay [3]. Besides, the “PARP2 % of residual activity (500 μM)” value in assay [4] is recorded as ~ 100%.

`CN1CCN(c2ccc3nc(-c4ccc5nc(-c6ccc7nc(CNC(=O)CCCN8CCN(CCCC(=O)NCc9nc%10ccc(-c%11nc%12ccc(-c%13nc%14ccc(N%15CCN(C)CC%15)cc%14[nH]%13)cc%12[nH]%11)cc%10[nH]9)CC8)[nH]c7c6)[nH]c5c4)[nH]c3c2)CC1` [DB3P(3)]: the concentration for half-maximal inhibition (IC50) in assay [1] amounted to 0.2 ± 0.05 µM. Further, the results for the remaining activity at 500 µM in assay [2] and in assay [3] were around 100% and 47 ± 14%, respectively. Besides, the “PARP2 % of residual activity (500 μM)” value in assay [4] is ~ 100%.

Consider `CN1CCN(c2ccc3nc(-c4ccc5nc(-c6ccc7nc(CNC(=O)CCCCN8CCN(CCCCC(=O)NCc9nc%10ccc(-c%11nc%12ccc(-c%13nc%14ccc(N%15CCN(C)CC%15)cc%14[nH]%13)cc%12[nH]%11)cc%10[nH]9)CC8)[nH]c7c6)[nH]c5c4)[nH]c3c2)CC1` [DB3P(4)], for which the IC50 in assay [1] stood at 0.15 ± 0.03 µM. In addition, the figures for the remaining activity at 500 µM in assay [2] and in assay [3] were around 100% and 48 ± 15%, respectively. The “PARP2 % of residual activity (500 μM)” value in assay [4] is ~ 100%.

As to `CC(=O)NCc1nc2ccc(-c3nc4ccc(N5CCN(C)CC5)cc4[nH]3)cc2[nH]1` [MB2(Ac)], in assay [1], the IC50 amounted to 1.5 ± 0.5 µM. In addition, the remaining activity at 500 µM in assay [2] and in assay [3] was around 100% each time. Besides, in assay [4], the “PARP2 % of residual activity (500 μM)” value is given as ~ 100%.
